Results reported in US8026243B2, “[4,5′]Bipyrimidinyl-6,4′-diamine derivatives as protein kinase inhibitors” (Novartis AG, priority 2006, dated 2011).

The compounds below were run against T1, Ba/F3-TEL-FGFR3 cells (Homo sapiens, UniProt P22607) (assay: FGFR3 cellular assay: proliferation of transformed Ba/F3-TEL-FGFR3 cells (AlamarBlue)). Settings: 48 hours incubation, class symbols.
T1 construct: fused on or other part: The N-terminal oligomerising part of TEL (ETV6) is fused before the intracellular kinase part of FGFR3; P41212 (Transcription factor ETV6)
Format: cell-based
Description: Compounds of the invention are tested for their ability to inhibit transformed Ba/F3-TEL-FGFR3 cells proliferation, which is dependent on FGFR3 cellular kinase activity. Ba/F3-TEL-FGFR3 are cultured up to 800,000 cells/mL in suspension, with RPMI 1640 supplemented with 10% fetal bovine serum as the culture medium. Cells are dispensed into 384-well format plate at 5000 cell/well in […], culture medium. Compounds of the invention are dissolved and diluted in dimethylsulfoxide (DMSO). Twelve points 1:3 serial dilutions are made into DMSO to create concentrations gradient ranging typically from 10 mM to 0.05 μM. Cells are added with 50 nL of diluted compounds and incubated for 48 hours in cell culture incubator. AlamarBlue® (TREK Diagnostic Systems), which can be used to monitor the reducing environment created by proliferating cells, are added to cells at final concentration of 10%. After additional four hours of incubation in a 37° C. cell culture incubator, fluorescence signals from reduced AlamarBlue® (Excitation at 530 nm, Emission at 580 nm) are quantified on Analyst GT (Molecular Devices Corp.). IC50 values are calculated by linear regression analysis of the percentage inhibition of each compound at 12 concentrations.

T1 sequence (P22607 whole entry, change not shown, the tested form may be a part): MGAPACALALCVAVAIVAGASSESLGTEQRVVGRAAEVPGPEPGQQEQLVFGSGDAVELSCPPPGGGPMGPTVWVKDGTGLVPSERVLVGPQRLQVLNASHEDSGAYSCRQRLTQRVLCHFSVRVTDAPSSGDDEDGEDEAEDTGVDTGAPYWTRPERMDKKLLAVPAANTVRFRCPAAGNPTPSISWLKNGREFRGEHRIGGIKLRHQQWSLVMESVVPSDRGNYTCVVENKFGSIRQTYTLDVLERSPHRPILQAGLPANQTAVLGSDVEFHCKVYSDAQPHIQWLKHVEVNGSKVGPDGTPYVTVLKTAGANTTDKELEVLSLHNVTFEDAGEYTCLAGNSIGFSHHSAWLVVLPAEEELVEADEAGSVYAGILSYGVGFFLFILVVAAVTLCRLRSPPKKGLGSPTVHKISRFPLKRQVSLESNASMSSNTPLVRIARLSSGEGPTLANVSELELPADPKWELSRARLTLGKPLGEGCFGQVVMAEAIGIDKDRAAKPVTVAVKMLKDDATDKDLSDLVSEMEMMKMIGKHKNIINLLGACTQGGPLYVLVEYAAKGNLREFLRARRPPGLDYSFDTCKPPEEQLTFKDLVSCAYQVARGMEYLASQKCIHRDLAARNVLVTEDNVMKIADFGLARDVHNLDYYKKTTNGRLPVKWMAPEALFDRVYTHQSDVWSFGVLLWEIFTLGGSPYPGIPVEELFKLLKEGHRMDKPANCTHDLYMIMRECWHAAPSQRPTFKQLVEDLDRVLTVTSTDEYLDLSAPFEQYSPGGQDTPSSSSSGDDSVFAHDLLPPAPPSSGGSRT

Row | SMILES | GI50 [nM]
1 | CCNC(=O)c1cc(OC)c(Cl)c(Nc2ncncc2-c2cc(Nc3cc(CN4CCN(C)CC4)ccn3)ncn2)c1Cl [Compound 30, 2,4-Dichloro-N-ethyl-5-methoxy-3-{6-[4-(4-methyl-piperazin-1-ylmethyl)-pyridin-2-ylamino]-[4,5′]bipyrimidinyl-4′-ylamino}-benzamide] | < 100
2 | CCNC(=O)c1cc(OC)c(Cl)c(Nc2ncncc2-c2cc(Nc3ccc(CN(C)C)cn3)ncn2)c1Cl [Compound 31, 2,4-Dichloro-3-[6-(5-dimethylaminomethyl-pyridin-2-ylamino)-[4,5′]bipyrimidinyl-4′-ylamino]-N-ethyl-5-methoxy-benzamide] | < 100
3 | CCNC(=O)c1cc(OC)c(Cl)c(Nc2ncncc2-c2cc(Nc3ccc(CCN4CCOCC4)cn3)ncn2)c1Cl [Compound 32, 2,4-Dichloro-N-ethyl-5-methoxy-3-{6-[5-(2-morpholin-4-yl-ethyl)-pyridin-2-ylamino]-[4,5′]bipyrimidinyl-4′-yl-amino}-benzamide] | 100 to 250
4 | CCNC(=O)c1cc(OC)c(Cl)c(Nc2ncncc2-c2cc(Nc3cc(CN4CCOCC4)ccn3)ncn2)c1Cl [Compound 33, 2,4-Dichloro-N-ethyl-5-methoxy-3-[6-(4-morpholin-4-ylmethyl-pyridin-2-ylamino)-[4,5′]bipyrimidinyl-4′-ylamino]-benzamide] | < 100
5 | CCNC(=O)c1cc(OC)c(Cl)c(Nc2ncncc2-c2cc(Nc3ccc(CN4CCN(C)CC4)cn3)ncn2)c1Cl [Compound 34, 2,4-Dichloro-N-ethyl-5-methoxy-3-{6-[5-(4-methyl-piperazin-1-ylmethyl)-pyridin-2-ylamino]-[4,5′]bipyrimidinyl-4′-ylamino}-benzamide] | 250 to 500
6 | CCNC(=O)c1cc(OC)c(Cl)c(Nc2ncncc2-c2cc(Nc3ccc(CN4CCCC4)cn3)ncn2)c1Cl [Compound 35, 2,4-Dichloro-N-ethyl-5-methoxy-3-[6-(5-pyrrolidin-1-ylmethyl-pyridin-2-ylamino)-[4,5′]bipyrimidinyl-4′-ylamino]-benzamide] | < 100
7 | CCNC(=O)c1cc(OC)c(Cl)c(Nc2ncncc2-c2cc(Nc3ccc(N4CCN(CC)CC4)cc3)ncn2)c1Cl [Compound 36, 2,4-Dichloro-N-ethyl-3-{6-[4-(4-ethyl-piperazin-1-yl)-phenylamino]-[4,5′]bipyrimidinyl-4′-ylamino}-5-methoxy-benzamide] | < 100
8 | COc1cc(Nc2ncncc2-c2cc(Nc3ccc(CN4CCOCC4)cn3)ncn2)c(Cl)c(OC)c1 [Compound 37, N4′-(2-Chloro-3,5-dimethoxy-phenyl)-N6-(5-morpholin-4-ylmethyl-pyridin-2-yl)-[4,5′]bipyrimidinyl-6,4′-diamine] | 100 to 250
9 | CCN1CCN(Cc2ccc(Nc3cc(-c4cncnc4Nc4cc(OC)cc(OC)c4Cl)ncn3)nc2)CC1 [Compound 38, N4′-(2-Chloro-3,5-dimethoxy-phenyl)-N6-[5-(4-ethyl-piperazin-1-ylmethyl)-pyridin-2-yl]-[4,5′]bipyrimidinyl-6,4′-diamine] | 100 to 250
10 | COc1cc(Nc2ncncc2-c2cc(Nc3cc(CN4CCN(C)CC4)ccn3)ncn2)c(Cl)c(OC)c1 [Compound 39, N4′-(2-Chloro-3,5-dimethoxy-phenyl)-N6-[4-(4-methyl-piperazin-1-ylmethyl)-pyridin-2-yl]-[4,5′]bipyrimidinyl-6,4′-diamine] | 100 to 250
11 | CCN1CCN(c2ccc(Nc3cc(-c4cncnc4Nc4c(Cl)c(OC)cc(OC)c4Cl)ncn3)nc2)CC1 [Compound 40, N4′-(2,6-Dichloro-3,5-dimethoxy-phenyl)-N6-[5-(4-ethyl-piperazin-1-yl)-pyridin-2-yl]-[4,5′]bipyrimidinyl-6,4′-diamine] | < 100
12 | CCN1CCN(c2ccc(Nc3cc(-c4cncnc4Nc4c(Cl)c(OC)cc(C(=O)OC)c4Cl)ncn3)nc2)CC1 [Compound 41, 2,4-Dichloro-3-{6-[5-(4-ethyl-piperazin-1-yl)-pyridin-2-ylamino]-[4,5′]bipyrimidinyl-4′-ylamino}-5-methoxy-benzoic acid methyl ester] | < 100
13 | CCNC(=O)c1cc(OC)c(Cl)c(Nc2ncncc2-c2cc(Nc3ccc(N4CCN(CC)CC4)cn3)ncn2)c1Cl [Compound 42, 2,4-Dichloro-N-ethyl-3-{6-[5-(4-ethyl-piperazin-1-yl)-pyridin-2-ylamino]-[4,5′]bipyrimidinyl-4′-ylamino}-5-methoxy-benzamide] | < 100
14 | CCN1CCN(c2ccc(Nc3cc(-c4cncnc4Nc4c(F)c(OC)cc(OC)c4Cl)ncn3)nc2)CC1 [Compound 43, N4′-(2-Chloro-6-fluoro-3,5-dimethoxy-phenyl)-N6-[5-(4-ethyl-piperazin-1-yl)-pyridin-2-yl]-[4,5′]bipyrimidinyl-6,4′-diamine] | < 100

Now from value to compound:

Row | GI50 [nM] | SMILES
15 | < 100 | COc1cc(OC)c(Cl)c(Nc2ncncc2-c2cc(Nc3ccc(CN4CCOCC4)cn3)ncn2)c1F [Compound 44, N4′-(2-Chloro-6-fluoro-3,5-dimethoxy-phenyl)-N6-(5-morpholin-4-ylmethyl-pyridin-2-yl)-[4,5′]bipyrimidinyl-6,4′-diamine]
16 | < 100 | CCN1CCN(Cc2ccc(Nc3cc(-c4cncnc4Nc4c(F)c(OC)cc(OC)c4Cl)ncn3)nc2)CC1 [Compound 45, N4′-(2-Chloro-6-fluoro-3,5-dimethoxy-phenyl)-N6-[5-(4-ethyl-piperazin-1-ylmethyl)-pyridin-2-yl]-[4,5′]bipyrimidinyl-6,4′-diamine]
17 | < 100 | COc1cc(OC)c(Cl)c(Nc2ncncc2-c2cc(Nc3cc(CN4CCOCC4)ccn3)ncn2)c1F [Compound 46, N4′-(2-Chloro-6-fluoro-3,5-dimethoxy-phenyl)-N6-(4-morpholin-4-ylmethyl-pyridin-2-yl)-[4,5′]bipyrimidinyl-6,4′-diamine]
18 | < 100 | CCN1CCN(c2ccc(Nc3cc(-c4cncnc4Nc4c(Cl)c(OC)cc(OC)c4Br)ncn3)nc2)CC1 [Compound 47, N4′-(2-Bromo-6-chloro-3,5-dimethoxy-phenyl)-N6-[5-(4-ethyl-piperazin-1-yl)-pyridin-2-yl]-[4,5′]bipyrimidinyl-6,4′-diamine]
19 | < 100 | CCN1CCN(c2ccc(Nc3cc(-c4cncnc4Nc4c(C)c(OC)cc(OC)c4Cl)ncn3)nc2)CC1 [Compound 48, N4′-(2-Chloro-3,5-di-methoxy-6-methyl-phenyl)-N6-[5-(4-ethyl-piperazin-1-yl)-pyridin-2-yl]-[4,5′]bipyrimidinyl-6,4′-diamine]
20 | < 100 | COc1cc(OC)c(Br)c(Nc2ncncc2-c2cc(Nc3ccc(CN4CCOCC4)cn3)ncn2)c1Cl [Compound 49, N4′-(2-Bromo-6-chloro-3,5-dimethoxy-phenyl)-N6-(5-morpholin-4-ylmethyl-pyridin-2-yl)-[4,5′]bipyrimidinyl-6,4′-diamine]
21 | < 100 | CCN1CCN(Cc2ccc(Nc3cc(-c4cncnc4Nc4c(Cl)c(OC)cc(OC)c4Br)ncn3)nc2)CC1 [Compound 50, N4′-(2-Bromo-6-chloro-3,5-dimethoxy-phenyl)-N6-[5-(4-ethyl-piperazin-1-ylmethyl)-pyridin-2-yl]-[4,5′]bipyrimidinyl-6,4′-diamine]
22 | < 100 | COc1cc(OC)c(Br)c(Nc2ncncc2-c2cc(Nc3cc(CN4CCOCC4)ccn3)ncn2)c1Cl [Compound 51, N4′-(2-Bromo-6-chloro-3,5-dimethoxy-phenyl)-N6-(4-morpholin-4-ylmethyl-pyridin-2-yl)-[4,5′]bipyrimidinyl-6,4′-diamine]
23 | < 100 | COc1cc(OC)c(Cl)c(Nc2ncncc2-c2cc(Nc3ccc(CN4CCOCC4)cn3)ncn2)c1C [Compound 52, N4′-(2-Chloro-3,5-dimethoxy-6-methyl-phenyl)-N6-(5-morpholin-4-ylmethyl-pyridin-2-yl)-[4,5′]bipyrimidinyl-6,4′-diamine]
24 | < 100 | CCN1CCN(Cc2ccc(Nc3cc(-c4cncnc4Nc4c(C)c(OC)cc(OC)c4Cl)ncn3)nc2)CC1 [Compound 53, N4′-(2-Chloro-3,5-dimethoxy-6-methyl-phenyl)-N6-[5-(4-ethyl-piperazin-1-ylmethyl)-pyridin-2-yl]-[4,5′]bipyrimidinyl-6,4′-diamine]
25 | < 100 | COc1cc(OC)c(Cl)c(Nc2ncncc2-c2cc(Nc3cc(CN4CCOCC4)ccn3)ncn2)c1C [Compound 54, N4′-(2-Chloro-3,5-dimethoxy-6-methyl-phenyl)-N6-(4-morpholin-4-ylmethyl-pyridin-2-yl)-[4,5′]bipyrimidinyl-6,4′-diamine]
26 | < 100 | CCN1CCN(c2ccc(Nc3cc(-c4cncnc4Nc4c(Cl)c(OC)cc(C(=O)NC5CC5)c4Cl)ncn3)nc2)CC1 [Compound 55, 2,4-Dichloro-N-cyclopropyl-3-{6-[5-(4-ethyl-piperazin-1-yl)-pyridin-2-ylamino]-[4,5′]bipyrimidinyl-4′-ylamino}-5-methoxy-benzamide]
27 | < 100 | COc1cc(OC)c(Cl)c(Nc2ncncc2-c2cc(Nc3cc(CCN4CCOCC4)ccn3)ncn2)c1F [Compound 56, N4′-(2-Chloro-6-fluoro-3,5-dimethoxy-phenyl)-N6-[4-(2-morpholin-4-yl-ethyl)-pyridin-2-yl]-[4,5′]bipyrimidinyl-6,4′-diamine]
28 | < 100 | COc1cc(C(=O)NC2CC2)c(Cl)c(Nc2ncncc2-c2cc(Nc3ccc(CN4CCOCC4)cn3)ncn2)c1Cl [Compound 57, 2,4-Dichloro-N-cyclopropyl-5-methoxy-3-[6-(5-morpholin-4-ylmethyl-pyridin-2-ylamino)-[4,5′]bipyrimidinyl-4′-ylamino]-benzamide]
